Results taken from ChEMBL document CHEMBL5104227, “Synthesis and evaluation of radiolabeled porphyrin derivatives for cancer diagnoses and their nonradioactive counterparts for photodynamic therapy” (RSC Med Chem, 2022).
The source made the active and inactive calls. The calls are words filed in the database; no cut-off is given here.

Legend:
[1] = Induction of singlet oxygen production in DMSO assessed as singlet oxygen quantum yield by measuring the photooxidation of 9,10-dimethylanthracene at 5 uM irradiated with 50 W LED light; type: functional
Colon 26 [2] = experiment: Phototoxicity against […] Colon 26 cells assessed as inhibition of cell growth preincubated for 24 hrs followed by compound washout with replacement of fresh medium and irradiation with 50 W LED light by MTT assay; type: functional, cell-based; settings: Mus musculus, Colon 26, light or radiation study
Colon 26 [3] = experiment: Dark toxicity against […] Colon 26 cells assessed as inhibition of cell growth incubated for 24 hrs by MTT assay; type: functional, cell-based; settings: Mus musculus, Colon 26, 24 h
Colon 26 [4] = experiment: Photodynamic therapeutic activity against […] Colon 26 cells /c xenografted in BALB/c mouse assessed as tumor growth inhibition at 13.6 umol/kg, iv pretreated for 24 hrs followed by 30 mins irradiation with 50 W LED light and measured upto 7 days; type: functional, organism-based; settings: dose 13.6 µmol/kg, time <= 7.0 day, tested as the 125I-labelled form
[5] = Octanol-water partition coefficient, logP of the compound at pH 7.4 incubated for 10 mins by shake-flask method; type: physicochemical
[6] = Drug uptake in […] Colon 26 cells measured per mg of protein after 3 hrs by auto-well gamma counter analysis; type: ADME, cell-based; settings: mouse, colon 26, 3 h
[7] = Biodistribution in liver of BALB/c mouse xenografted with […] Colon 26 cells at 37 kBq, iv measured upto 96 hrs by auto-well gamma counter analysis; type: ADME, organism-based; settings: in vivo
[8] = Biodistribution in spleen of BALB/c mouse xenografted with […] Colon 26 cells at 37 kBq, iv measured upto 96 hrs by auto-well gamma counter analysis; type: ADME, organism-based; settings: in vivo
[9] = Biodistribution in lung of BALB/c mouse xenografted with […] Colon 26 cells at 37 kBq, iv measured upto 96 hrs by auto-well gamma counter analysis; type: ADME, organism-based; settings: in vivo
[10] = Biodistribution in Tumor/blood of BALB/c mouse xenografted with […] Colon 26 cells at 37 kBq, iv by auto-well gamma counter analysis; type: ADME, organism-based; settings: in vivo, 96 h, TDE = time-dependent effect
[11] = Biodistribution in Tumor/muscle of BALB/c mouse xenografted with […] Colon 26 cells at 37 kBq, iv measured at 48 hrs by auto-well gamma counter analysis; type: ADME, organism-based; settings: in vivo
[12] = Drug uptake in Tumor of BALB/c mouse xenografted with […] Colon 26 cells at 37 kBq, iv measured at 48 hrs by auto-well gamma counter analysis; type: ADME, organism-based, Neoplasm; settings: in vivo
[13] = Toxicity in BALB/c mouse xenografted with […] Colon 26 cells assessed as weight loss at 13.6 umol/kg, iv pretreated for 24 hrs followed by 30 mins irradiation with 50 W LED light and measured upto 7 days; type: organism-based; settings: in vivo, 168 h, dose 13.6 µmol/kg, time < 7 day

**Q.** Which Activity [1] does the source give for `C1=Cc2nc1c(-c1ccccc1)c1ccc([nH]1)c(-c1ccccc1)c1nc(c(-c3ccccc3)c3ccc([nH]3)c2-c2ccccc2)C=C1` here?
**A.** The Activity was 0.52.

**Q.** With `O=C(N[C@@H](Cc1ccc(O)c(I)c1)C(=O)O)c1ccc(-c2c3nc(c(-c4ccccc4)c4ccc([nH]4)c(-c4ccccc4)c4nc(c(-c5ccccc5)c5ccc2[nH]5)C=C4)C=C3)cc1` as the compound, how does the Activity [1] read?
**A.** The Activity was 0.51.

**Q.** And the IC50 (Colon 26 [2])?
**A.** The IC50 was 5.28 µM.

**Q.** And the IC50 (Colon 26 [3])?
**A.** Its IC50 is > 100 µM.

**Q.** What about the Activity (Colon 26 [4]) of the same compound?
**A.** The Activity was “Active”.

**Q.** Which results are given for `O=C(N[C@@H](Cc1ccc(O)c([125I])c1)C(=O)O)c1ccc(-c2c3nc(c(-c4ccccc4)c4ccc([nH]4)c(-c4ccccc4)c4nc(c(-c5ccccc5)c5ccc2[nH]5)C=C4)C=C3)cc1`?
**A.** logD at 10 min [5]: 2.55; Drug uptake [6]: 52.9%; Drug uptake [7]: Active; Drug uptake [8]: Active; Drug uptake [9]: Active; Drug uptake [10]: Tde; Drug uptake [11]: Active; Drug uptake [12]: 8.7 % ID/g; Activity [13]: Non-Toxic

**Q.** With `Oc1ccc(-c2c3nc(c(-c4ccccc4)c4ccc([nH]4)c(-c4ccccc4)c4nc(c(-c5ccccc5)c5ccc2[nH]5)C=C4)C=C3)cc1[125I]` as the compound, how does the logD at 10 min [5] read?
**A.** The logD at 10 min was 2.96.

**Q.** And the Drug uptake [6]?
**A.** Its Drug uptake is 54%.

**Q.** What about the Drug uptake [7] of the same compound?
**A.** Its Drug uptake is “Active”.

**Q.** And the Drug uptake [8]?
**A.** Its Drug uptake is “Active”.

**Q.** What about the Drug uptake [9] of the same compound?
**A.** The Drug uptake was “Active”.

**Q.** What about the Drug uptake [10] of the same compound?
**A.** Its Drug uptake is “Tde”.

**Q.** What about the Drug uptake [11] of the same compound?
**A.** The Drug uptake was “Active”.

**Q.** And the Drug uptake [12]?
**A.** The Drug uptake was 18 % ID/g.

**Q.** What about the Activity [13] of the same compound?
**A.** The Activity was “Non-Toxic”.

**Q.** Which IC50 (Colon 26 [2]) does the source give for `O=c1[nH]cc(F)c(=O)[nH]1` [FLUOROURACIL] here?
**A.** Its IC50 is 4.1 µM.

**Q.** What about the IC50 (Colon 26 [3]) of the same compound?
**A.** The IC50 was 3.87 µM.

**Q.** Which results are given for `Oc1ccc(-c2c3nc(c(-c4ccccc4)c4ccc([nH]4)c(-c4ccccc4)c4nc(c(-c5ccccc5)c5ccc2[nH]5)C=C4)C=C3)cc1I`?
**A.** Activity [1]: 0.65; IC50 (Colon 26 [2]): 8.77 µM; IC50 (Colon 26 [3]): > 50 µM; Activity (Colon 26 [4]): Active
